Legend:
[1] = Snapshot (5 h) PK study with/without EA and 1-ABT; format: in vivo; details: male, CD-1, mouse, plasma, ip, 10 mg/kg, CD-1 mice, 10 mg/kg i.p.
Procedure: In the 5 h PK study investigating the effect of co-dosing EA and 1-ABT, two cohorts of male CD-1 mice (6–8 weeks old, 20–30 g) were dosed via intraperitoneal (i.p.) administration of compound 2 (10 mg/kg) as a 10 mL/kg volume of a 1.0 mg/mL solution in DMSO/PEG-400/saline (v/v/v, 10:30:60). EA (30 mg/kg) was administered i.p. as a 1.0 mL/kg volume of a 30 mg/mL solution in NMP/PEG-400/water (v/v/v, 10:60:30) as a 6 h pretreatment and again at the time of dosing with compound 2. 1-ABT (100 mg/kg) was administered p.o. as a 10 mL/kg volume of a 10 mg/mL solution in saline as a 2 h pretreatment. No co-treatment with EA or 1-ABT was applied to the first cohort. Co-treatment with EA (30 mg/kg) and 1-ABT (100 mg/kg) was applied in the second cohort. Two mice were dosed in each cohort. The mice had free access to water and food. Blood (0.03 mL) was collected from the dorsal metatarsal vein at 0.5, 1, 3, and 5 h time points. Each blood sample was transferred into a plastic microcentrifuge tube containing EDTA-K2 anticoagulant. Blood samples were centrifuged at 4000× g for 5 min at 4 °C to obtain plasma. The samples were stored in a freezer at −75 ± 15 °C prior to analysis. Plasma samples from the two mice from each cohort and each time point were pooled together for analysis. At 5 h post dose administration, the mice were anesthetized using increasing concentrations of CO2, and lung samples were collected. Lung samples were quickly frozen in an ice box and stored at −75 ± 15 °C. Prior to analysis, all lung samples were weighed and homogenized with phosphate-buffered saline (PBS) in a lung weight (g)/buffer volume (mL) ratio of 1:3. The final compound concentration was calculated by multiplying the detected concentration by a dilution factor of four.
Concentrations of the test compound in the plasma samples were determined using a Prominence LC-MS/MS system with a DGU-20A5R(C) degasser, LC-30AD pump, CBM-20A system controller, SIL-20AC HT autosampler; Rack changer II, HALO 90A ES-CN (2.7 μm, 2.1 × 50 mm) column, and AB Sciex Triple Quan 5500 LC/MS/MS instrument. The mobile phase was 5–95% MeCN in H2O, with 0.1% formic acid. The desired serial concentrations of working solutions were achieved by diluting the stock solution of the analyte with 50% acetonitrile in water. A series of 10 µL working solutions […] were added to 10 μL of blank plasma or lung homogenate to achieve calibration standards of 0.5, 1, 2, 5, 10, 50, 100, 500, 1000 ng/mL in a total volume of 20 μL. A total of 5 quality control samples at 1 ng/mL, 2 ng/mL, 5 ng/mL, 100 ng/mL, and 800 ng/mL were prepared independently of those used for the calibration curves in the same manner. A 20 μL standard, 20 μL QC sample, and 20 μL of an unknown sample (10 µL plasma or lung homogenate with 10 µL blank solution) were added to 200 μL of acetonitrile containing internal standard mixture for precipitating protein. Then, the samples were vortexed for 30 s. After centrifugation at 4 °C and 4000 rpm for 15 min, the supernatant was diluted with ultrapure water at a ratio of 1:2 (v/v, 1:2), then 20 µL of diluted supernatant was injected into the LC/MS/MS system for quantitative analysis. PK parameters were calculated from the mean plasma concentration versus time using a noncompartmental model in WinNonlin Phoenix version 8.3.

DYRK1A = target: T1, DYRK1A (Homo sapiens, UniProt Q13627); test: NanoBRET dose-response DYRK1A; format: cell-based; details: IC50 not determined, poor assay window
T1 construct: purchased Promega (NanoBRET Target Engagement K192 Kinase Selectivity System)

CLK4 = target: T2, CLK4 (Homo sapiens, UniProt Q9HAZ1); test: NanoBRET dose-response CLK4; format: cell-based; details: highest concentration tested 30 μM
T2 construct: expressed in transfected cells; host or cells: HEK293

[2] = with both EA (30 mg/kg) and 1-ABT (100 mg/kg)

T2 sequence (Q9HAZ1 whole entry): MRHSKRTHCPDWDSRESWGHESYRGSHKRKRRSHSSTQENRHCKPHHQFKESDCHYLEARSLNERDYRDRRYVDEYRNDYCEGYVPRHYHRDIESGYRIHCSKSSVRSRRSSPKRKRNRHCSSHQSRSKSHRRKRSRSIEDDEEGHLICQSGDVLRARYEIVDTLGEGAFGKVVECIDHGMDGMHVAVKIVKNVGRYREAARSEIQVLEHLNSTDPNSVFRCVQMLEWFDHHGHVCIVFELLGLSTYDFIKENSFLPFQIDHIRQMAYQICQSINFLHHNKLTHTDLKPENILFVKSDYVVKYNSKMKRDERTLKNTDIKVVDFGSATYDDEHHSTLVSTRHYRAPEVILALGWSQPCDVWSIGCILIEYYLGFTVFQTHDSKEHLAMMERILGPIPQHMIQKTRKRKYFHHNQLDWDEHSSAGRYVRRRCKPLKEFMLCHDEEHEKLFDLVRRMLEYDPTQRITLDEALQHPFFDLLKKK

CCC(=O)Nc1cc(Nc2cc(NC3CC3)n3ncc(C#N)c3n2)c(F)cc1N1CCC[C@H](NC)C1 [Compound 2, (S)-N-(5-((3-cyano-7-(cyclopropylamino)pyrazolo[1,5-a]pyrimidin-5-yl)amino)-4-fluoro-2-(3-(methylamino)piperidin-1-yl)phenyl)propionamide]
AUC(0-t) ([1]; no co-treatment): 7.77 µM·h
Cmax ([1]; no co-treatment): 3.19 µM
half-life ([1]; no co-treatment): 2.5 h
AUC(0-t) [1, 2]: 10.1 µM·h
Cmax [1, 2]: 3.15 µM
half-life [1, 2]: 3.7 h
occupancy in the dose-response experiment (DYRK1A): no occupancy was observed up to 10 μM
IC50 (CLK4): > 30 µM
